This is an account of results in patent US8987195B2 (priority 2012, dated 2015).

Like-named read-outs stand apart in the source and are kept apart here.

One test has as its system HCV genotype 1b replicon. In words: HCV replicon assay, genotype 1b replicon EC50. It counts as cell-based, Hepatitis C virus. As to conditions: Hepatitis C virus, HCV replicon, genotype 1b, read-out: EC50 [gt-1b]. The gist of the method:
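Compound dilution series incubated 24-48 h, G418 absent, with HCV genotype 1b replicon cell lines kept under G418 selection beforehand. Luciferase signal or replicon RNA, by ^32P hybridization/protection or TaqMan normalized to cyclophilin A, was measured after washing and lysis. Four-parameter fitting against DMSO control gave EC50.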

Test [1] concerns the target HCV NS3/4A protease genotype 1b (Hepatitis C virus genotype 1b, UniProt P26663). Kind of test: HCV NS3/4A protease time-resolved fluorescence (TRF) assay, Ki against genotype 1b. Type of test: biochemical. As to conditions: IC50 [gt-1b], NS3/4A protease TRF assay, genotype 1b enzyme 0.2 nM. In a few lines: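 Enzyme 0.2 nM 1b / 0.4 nM A156T / 0.025 nM 3a; 30 min preinc. w/ cpd; 25 nM TRF peptide; 2.5 h RT; ex 340/em 615 time-delayed; 4-param IC50 → Ki = IC50/(1+[S]/KM).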

In the case of `COc1ccc2nc(C(F)(F)F)c3c(c2c1)CC[C@]1(C[C@H]2C(=O)N[C@]4(C(=O)NS(=O)(=O)C5(C)CC5)C[C@H]4/C=C\CCCCC[C@H](NC(=O)OC4(C(C)C)CC4)C(=O)N2C1)O3` [Example 449, 1-(propan-2-yl)cyclopropyl [(2R,6S,12Z,13aS,14aR,16aS)-9′-methoxy-14a-{[(1-methylcyclopropyl)sulfonyl]carbamoyl}-5,16-dioxo-5′-(trifluoromethyl)-1,1′,2′,5,6,7,8,9,10,11,13a,14,14a,15,16,16a-hexadecahydrospiro[cyclopropa[e]pyrrolo[1,2-a][1,4]diazacyclopentadecine-2,3′-pyrano[2,3-c]quinolin]-6-yl]carbamate], the EC50 (commonly the concentration giving half of the maximal effect) in the test on HCV genotype 1b replicon was 1.39 nM. Also, in test [1], the IC50 (usually the concentration that inhibits the measured activity by half) was found to be 0.007 nM.
On to `COc1ccc2nc(C(F)(F)F)c3c(c2c1)CC[C@]1(C[C@H]2C(=O)N[C@]4(C(=O)NS(=O)(=O)C5(C)CC5)C[C@H]4/C=C\CCCCC[C@H](NC(=O)OC4CCC4)C(=O)N2C1)O3` [Example 450, cyclobutyl [(2R,6S,12Z,13aS,14aR,16aS)-9′-methoxy-14a-{[(1-methylcyclopropyl)sulfonyl]carbamoyl}-5,16-dioxo-5′-(trifluoromethyl)-1,1′,2′,5,6,7,8,9,10,11,13a,14,14a,15,16,16a-hexadecahydrospiro[cyclopropa[e]pyrrolo[1,2-a][1,4]diazacyclopentadecine-2,3′-pyrano[2,3-c]quinolin]-6-yl]carbamate], for which the concentration for a half-maximal effect (EC50) in the test on HCV genotype 1b replicon was found to be 1.69 nM. Further, the midpoint of inhibition in test [1], the IC50, lay at 0.019 nM.
As to `CCC1(OC(=O)N[C@H]2CCCCC/C=C\[C@@H]3C[C@@]3(C(=O)NS(=O)(=O)C3(C)CC3)NC(=O)[C@@H]3C[C@]4(CCc5c(c(C(F)(F)F)nc6ccc(OC)cc56)O4)CN3C2=O)CC1` [Example 452, 1-ethylcyclopropyl [(2R,6S,12Z,13aS,14aR,16aS)-9′-methoxy-14a-{[(1-methylcyclopropyl)sulfonyl]carbamoyl}-5,16-dioxo-5′-(trifluoromethyl)-1,1′,2′,5,6,7,8,9,10,11,13a,14,14a,15,16,16a-hexadecahydrospiro[cyclopropa[e]pyrrolo[1,2-a][1,4]diazacyclopentadecine-2,3′-pyrano[2,3-c]quinolin]-6-yl]carbamate], the EC50 in the test with HCV genotype 1b replicon is 2.4 nM. Further, the IC50 in test [1] is 0.03 nM.
For `COCCCOc1ccc2nc(C)c3c(c2c1)CC[C@]1(C[C@H]2C(=O)N[C@]4(C(=O)NS(=O)(=O)C5(C)CC5)C[C@H]4/C=C\CCCCC[C@H](NC(=O)OCC(C)(C)C)C(=O)N2C1)O3` [Example 453, 2,2-dimethylpropyl [(2R,6S,12Z,13aS,14aR,16aS)-9′-(3-methoxypropoxy)-5′-methyl-14a-{[(1-methylcyclopropyl)sulfonyl]carbamoyl}-5,16-dioxo-1,1′,2′,5,6,7,8,9,10,11,13a,14,14a,15,16,16a-hexadecahydrospiro[cyclopropa[e]pyrrolo[1,2-a][1,4]diazacyclopentadecine-2,3′-pyrano[2,3-c]quinolin]-6-yl]carbamate], the EC50 in the test on HCV genotype 1b replicon is 1.78 nM. The concentration for half-maximal inhibition (IC50) in test [1] is 0.017 nM.
In the case of `COc1ccc2nc(C3CC3)c3c(c2c1)[C@H](F)C[C@]1(C[C@H]2C(=O)N[C@]4(C(=O)NS(=O)(=O)C5(C)CC5)C[C@H]4/C=C\CCCCC[C@H](NC(=O)OCC(C)C)C(=O)N2C1)O3` [Example 454, 2-methylpropyl [(1′R,2S,6S,12Z,13aS,14aR,16aS)-5′-cyclopropyl-1′-fluoro-9′-methoxy-14a-{[(1-methylcyclopropyl)sulfonyl]carbamoyl}-5,16-dioxo-1,1′,2′,5,6,7,8,9,10,11,13a,14,14a,15,16,16a-hexadecahydrospiro[cyclopropa[e]pyrrolo[1,2-a][1,4]diazacyclopentadecine-2,3′-pyrano[2,3-c]quinolin]-6-yl]carbamate], the EC50 with HCV genotype 1b replicon (K+ salt) turned out to be 1.38 nM. The IC50 in test [1] (K+ salt) was 0.024 nM.
The matching figures for `COc1ccc2nc(C3CC3)c3c(c2c1)[C@H](F)C[C@]1(C[C@H]2C(=O)N[C@]4(C(=O)NS(=O)(=O)C5(C)CC5)C[C@H]4/C=C\CCCCC[C@H](NC(=O)OCC(C)(C)C)C(=O)N2C1)O3` [Example 455, 2,2-dimethylpropyl [(1′R,2S,6S,12Z,13aS,14aR,16aS)-5′-cyclopropyl-1′-fluoro-9′-methoxy-14a-{[(1-methylcyclopropyl)sulfonyl]carbamoyl}-5,16-dioxo-1,1′,2′,5,6,7,8,9,10,11,13a,14,14a,15,16,16a-hexadecahydrospiro[cyclopropa[e]pyrrolo[1,2-a][1,4]diazacyclopentadecine-2,3′-pyrano[2,3-c]quinolin]-6-yl]carbamate]: 1.55 nM and 0.04 nM.
As to `COc1ccc2nc(C3CC3)c3c(c2c1)[C@H](F)C[C@]1(C[C@H]2C(=O)N[C@]4(C(=O)NS(=O)(=O)C5(C)CC5)C[C@H]4/C=C\CCCCC[C@H](NC(=O)OC(C)C)C(=O)N2C1)O3` [Example 456, propan-2-yl [(1′R,2S,6S,12Z,13aS,14aR,16aS)-5′-cyclopropyl-1′-fluoro-9′-methoxy-14a-{[(1-methylcyclopropyl)sulfonyl]carbamoyl}-5,16-dioxo-1,1′,2′,5,6,7,8,9,10,11,13a,14,14a,15,16,16a-hexadecahydrospiro[cyclopropa[e]pyrrolo[1,2-a][1,4]diazacyclopentadecine-2,3′-pyrano[2,3-c]quinolin]-6-yl]carbamate], in the test with HCV genotype 1b replicon (K+ salt), the EC50 amounted to 1.41 nM. In test [1] (K+ salt), the concentration for half-maximal inhibition (IC50) amounted to 0.021 nM.
On to `COc1ccc2nc(C3CC3)c3c(c2c1)[C@H](F)C[C@]1(C[C@H]2C(=O)N[C@]4(C(=O)NS(=O)(=O)C5(C)CC5)C[C@H]4/C=C\CCCCC[C@H](NC(=O)O[C@H](C)C(C)C)C(=O)N2C1)O3` [Example 457, (2R)-3-methylbutan-2-yl [(1′R,2S,6S,12Z,13aS,14aR,16aS)-5′-cyclopropyl-1′-fluoro-9′-methoxy-14a-{[(1-methylcyclopropyl)sulfonyl]carbamoyl}-5,16-dioxo-1,1′,2′,5,6,7,8,9,10,11,13a,14,14a,15,16,16a-hexadecahydrospiro[cyclopropa[e]pyrrolo[1,2-a][1,4]diazacyclopentadecine-2,3′-pyrano[2,3-c]quinolin]-6-yl]carbamate], for which, in the test with HCV genotype 1b replicon (K+ salt), the EC50 turned out to be 1.17 nM. In addition, in test [1] (K+ salt), the IC50 amounted to 0.068 nM.
Consider `CC(C)(C)OC(=O)N[C@H]1CCCCC/C=C\[C@@H]2C[C@@]2(C(=O)NS(=O)(=O)C2(C)CC2)NC(=O)[C@@H]2C[C@]3(CCc4c(c(C(F)(F)F)nc5ccc(OCF)cc45)O3)CN2C1=O` [Example 458, tert-butyl [(2R,6S,12Z,13aS,14aR,16aS)-9′-(fluoromethoxy)-14a-{[(1-methylcyclopropyl)sulfonyl]carbamoyl}-5,16-dioxo-5′-(trifluoromethyl)-1,1′,2′,5,6,7,8,9,10,11,13a,14,14a,15,16,16a-hexadecahydrospiro[cyclopropa[e]pyrrolo[1,2-a][1,4]diazacyclopentadecine-2,3′-pyrano[2,3-c]quinolin]-6-yl]carbamate], for which the EC50 in the test with HCV genotype 1b replicon worked out at 1.43 nM. In addition, in test [1], the half-maximal inhibitory concentration (IC50) came out at 0.015 nM.
Consider `COc1ccc2nc(C(F)(F)F)c3c(c2c1)[C@H](F)C[C@]1(C[C@H]2C(=O)N[C@]4(C(=O)NS(=O)(=O)C5(C)CC5)C[C@H]4/C=C\CCCCC[C@H](NC(=O)OCC(C)(C)C)C(=O)N2C1)O3` [Example 462, 2,2-dimethylpropyl [(1′R,2S,6S,12Z,13aS,14aR,16aS)-1′-fluoro-9′-methoxy-14a-{[(1-methylcyclopropyl)sulfonyl]carbamoyl}-5,16-dioxo-5′-(trifluoromethyl)-1,1′,2′,5,6,7,8,9,10,11,13a,14,14a,15,16,16a-hexadecahydrospiro[cyclopropa[e]pyrrolo[1,2-a][1,4]diazacyclopentadecine-2,3′-pyrano[2,3-c]quinolin]-6-yl]carbamate], for which the concentration for a half-maximal effect (EC50) in the test on HCV genotype 1b replicon is 5.75 nM. In test [1], this compound registered an IC50 of 0.036 nM.
The matching figures for `COc1ccc2nc(C)c3c(c2c1)CC[C@]1(C[C@H]2C(=O)N[C@]4(C(=O)NS(=O)(=O)C5(C)CC5)C[C@H]4/C=C\CCCCC[C@H](Nc4cccc(C)n4)C(=O)N2C1)O3` [Example 463, (2R,6S,12Z,13aS,14aR,16aS)-9′-methoxy-5′-methyl-N-[(1-methylcyclopropyl)sulfonyl]-6-[(6-methylpyridin-2-yl)amino]-5,16-dioxo-1,1′,2′,6,7,8,9,10,11,13a,14,15,16,16a-tetradecahydrospiro[cyclopropa[e]pyrrolo[1,2-a][1,4]diazacyclopentadecine-2,3′-pyrano[2,3-c]quinoline]-14a(5H)-carboxamide]: 2.16 nM and 0.057 nM.
Regarding `Cc1nc2cc(F)ccc2c2c1OC1(CC2F)C[C@H]2C(=O)N[C@]3(C(=O)NS(=O)(=O)C4(C)CC4)C[C@H]3/C=C\CCCCC[C@H](NC(=O)OC(C)(C)C)C(=O)N2C1` (stereo partly drawn) [Example 464, tert-butyl [(6S,12Z,13aS,14aR,16aS)-1′,8′-difluoro-5′-methyl-14a-{[(1-methylcyclopropyl)sulfonyl]carbamoyl}-5,16-dioxo-1,1′,2′,5,6,7,8,9,10,11,13a,14,14a,15,16,16a-hexadecahydrospiro[cyclopropa[e]pyrrolo[1,2-a][1,4]diazacyclopentadecine-2,3′-pyrano[2,3-c]quinolin]-6-yl]carbamate], the concentration giving a half-maximal response (EC50) with HCV genotype 1b replicon is 15 nM. Also, the 50% inhibitory concentration (IC50) in test [1] was 1.03 nM.
